In PubChem BioAssay AID2060621 (Molecular Pharmacology Branch, DTP, NCI, 2025):

Tested on: 324938-238-R-J1-PDC complex spheroids viability
Experiment: Anticancer human tumor 324938-238-R-J1-PDC patient-derived bladder carcinoma cell line growth inhibition [CLK]
Conditions: for IC50: curve of first compound; for viability, T/C: stronger effect = lower value; active means viability on the fitted dose curve at most 10% of control; inactive means the rest
Summary of the method: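 Patient-derived tumor cells grown as complex spheroids with HUVEC endothelial cells and mesenchymal stem cells, treated with drug combinations. Concentrations descend in half-log steps from near clinical Cmax, or from 10 microM if Cmax unknown.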

[1] = second compound 0.0316 µM, first compound 0.0316 µM
[2] = second compound 0.0316 µM, first compound 0.1 µM
[3] = second compound 0.0316 µM, first compound 0.316 µM
[4] = second compound 0.0316 µM, first compound 1 µM
[5] = second compound 0.1 µM, first compound 0.0316 µM
[6] = second compound 0.1 µM, first compound 0.1 µM
[7] = second compound 0.1 µM, first compound 0.316 µM
[8] = second compound 0.1 µM, first compound 1 µM
[9] = second compound 0.316 µM, first compound 0.0316 µM
[10] = second compound 0.316 µM, first compound 0.1 µM
[11] = second compound 0.316 µM, first compound 0.316 µM
[12] = second compound 0.316 µM, first compound 1 µM
[13] = second compound 1 µM, first compound 0.0316 µM
[14] = second compound 1 µM, first compound 0.1 µM
[15] = second compound 1 µM, first compound 0.316 µM
[16] = second compound 1 µM, first compound 1 µM
[17] = second compound 3.16 µM, first compound 0.0316 µM
[18] = second compound 3.16 µM, first compound 0.1 µM
[19] = second compound 3.16 µM, first compound 0.316 µM
[20] = second compound 3.16 µM, first compound 1 µM
[21] = second compound 10 µM, first compound 0.0316 µM
[22] = second compound 10 µM, first compound 0.1 µM
[23] = second compound 10 µM, first compound 0.316 µM
[24] = second compound 10 µM, first compound 1 µM
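Further: viability read after seven days of drug exposure.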
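Wherever viability, T/C is given: 100% = DMSO vehicle control wells.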

CC(=O)O[C@H]1C(=O)[C@@]2(C)[C@H]([C@H](OC(=O)c3ccccc3)[C@]3(O)C[C@H](OC(=O)[C@H](O)[C@@H](NC(=O)c4ccccc4)c4ccccc4)C(C)=C1C3(C)C)[C@]1(OC(C)=O)CO[C@@H]1C[C@@H]2O + CN1CCN(c2cc(C(=O)Nc3cc4cc(-c5cnn(C)c5)ccc4cn3)ccn2)CC1
< 31.6 nM: IC50 (second compound 0.0316 µM) | IC50 (second compound 0.1 µM) | IC50 (second compound 0.316 µM) | IC50 (second compound 1 µM) | IC50 (second compound 3.16 µM) | IC50 (second compound 10 µM)
active: viability, T/C [13] 0.92% | viability, T/C [14] 0.96% | viability, T/C [15] 0.69% | viability, T/C [16] 1.04% | viability, T/C (second compound 1 µM, first compound 3.16 µM) 0.73% | viability, T/C (second compound 1 µM, first compound 10 µM) 0.69% | viability, T/C [17] 0.17% | viability, T/C [18] 0.22% | viability, T/C [19] 0.22% | viability, T/C [20] 0.13% | viability, T/C (second compound 3.16 µM, first compound 3.16 µM) 0.21% | viability, T/C (second compound 3.16 µM, first compound 10 µM) 0.18% | viability, T/C [21] 0.13% | viability, T/C [22] 0.16% | viability, T/C [23] 0.51% | viability, T/C [24] 0.16% | viability, T/C (second compound 10 µM, first compound 3.16 µM) 0.28% | viability, T/C (second compound 10 µM, first compound 10 µM) 0.28%
inactive: viability, T/C [1] 14.2% | viability, T/C [2] 13.8% | viability, T/C [3] 14.7% | viability, T/C [4] 12.9% | viability, T/C (second compound 0.0316 µM, first compound 3.16 µM) 14.6% | viability, T/C (second compound 0.0316 µM, first compound 10 µM) 15.7% | viability, T/C [5] 13.7% | viability, T/C [6] 14% | viability, T/C [7] 13.6% | viability, T/C [8] 13.8% | viability, T/C (second compound 0.1 µM, first compound 3.16 µM) 14.5% | viability, T/C (second compound 0.1 µM, first compound 10 µM) 16.9% | viability, T/C [9] 16.9% | viability, T/C [10] 15.6% | viability, T/C [11] 15.2% | viability, T/C [12] 16.9% | viability, T/C (second compound 0.316 µM, first compound 3.16 µM) 15% | viability, T/C (second compound 0.316 µM, first compound 10 µM) 18%

CCc1c2c(nc3ccc(O)cc13)-c1cc3c(c(=O)n1C2)COC(=O)[C@]3(O)CC + CN1CCN(c2cc(C(=O)Nc3cc4cc(-c5cnn(C)c5)ccc4cn3)ccn2)CC1
< 3.16 nM: IC50 (second compound 0.0316 µM) | IC50 (second compound 0.1 µM) | IC50 (second compound 0.316 µM) | IC50 (second compound 1 µM) | IC50 (second compound 3.16 µM) | IC50 (second compound 10 µM)
inactive: viability, T/C (second compound 0.0316 µM, first compound 0.00316 µM) 14.9% | viability, T/C (second compound 0.0316 µM, first compound 0.01 µM) 10.1% | viability, T/C [1] 11.5% | viability, T/C (second compound 0.1 µM, first compound 0.00316 µM) 12.7% | viability, T/C (second compound 0.1 µM, first compound 0.01 µM) 10.3% | viability, T/C (second compound 0.316 µM, first compound 0.00316 µM) 10.5%
active: viability, T/C [2] 9.42% | viability, T/C [3] 8.03% | viability, T/C [4] 1.47% | viability, T/C [5] 8.87% | viability, T/C [6] 8.12% | viability, T/C [7] 6.95% | viability, T/C [8] 1.21% | viability, T/C (second compound 0.316 µM, first compound 0.01 µM) 7.5% | viability, T/C [9] 4.44% | viability, T/C [10] 3.89% | viability, T/C [11] 0.83% | viability, T/C [12] 0.18% | viability, T/C (second compound 1 µM, first compound 0.00316 µM) 0.42% | viability, T/C (second compound 1 µM, first compound 0.01 µM) 0.28% | viability, T/C [13] 0.24% | viability, T/C [14] 0.06% | viability, T/C [15] 0.09% | viability, T/C [16] 0.38% | viability, T/C (second compound 3.16 µM, first compound 0.00316 µM) 0.16% | viability, T/C (second compound 3.16 µM, first compound 0.01 µM) 0.17% | viability, T/C [17] 0.19% | viability, T/C [18] 0.1% | viability, T/C [19] 0.16% | viability, T/C [20] 0.14% | viability, T/C (second compound 10 µM, first compound 0.00316 µM) 0.1% | viability, T/C (second compound 10 µM, first compound 0.01 µM) 0.11% | viability, T/C [21] 0.17% | viability, T/C [22] 0.11% | viability, T/C [23] 0.16% | viability, T/C [24] 0.16%
